These results are taken from PMC12366525, “Characterization of allosteric modulators that disrupt androgen receptor co-activator protein-protein interactions to alter transactivation–Drug leads for metastatic castration resistant prostate cancer” (SLAS discovery : advancing life sciences R & D, 2023).

Values joined by “and” are separate entries in the source; they are usually repeats but may differ in a detail not shown here. Identical values can stand only once. Like-named read-outs stand apart in the source and are kept apart here. A value given as a limit tells only on which side of the number the result lay.

Broadly, the IC50 is the midpoint of a concentration-inhibition curve. A low value points to greater potency in that assay.

Type in all cases: cell-based
For data set [1], the target named is T1, AR-TIF2 PPI (Homo sapiens, UniProt P10275).
T1 construct: expressed in transfected cells; host or cells: U-2 OS osteosarcoma cells, co-infected with recombinant adenoviruses
T1 sequence (P10275 663-920 limits assumed): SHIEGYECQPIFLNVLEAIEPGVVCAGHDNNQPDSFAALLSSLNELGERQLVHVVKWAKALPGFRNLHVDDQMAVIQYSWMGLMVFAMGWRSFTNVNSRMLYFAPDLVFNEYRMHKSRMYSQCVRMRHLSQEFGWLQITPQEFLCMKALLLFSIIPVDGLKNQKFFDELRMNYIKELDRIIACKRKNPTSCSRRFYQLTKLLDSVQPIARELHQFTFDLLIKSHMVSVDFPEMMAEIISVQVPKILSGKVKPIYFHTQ
The data set is described as follows: AR-TIF2 PPI biosensor (PPIB) HCS assay, inhibition of DHT-induced AR-TIF2 PPI formation. Conditions: for IC50: U-2 OS cells, compounds 3 h prior to 25 nM DHT for 90 min. Here is the method: (§1) Daughter plates containing 2 μL of the serially diluted compounds in DMSO were prepared and replicated from 384-well serial dilution master plates using a Janus MDT platform outfitted with a 384-well transfer head. Aluminum adhesive plate seals were applied, and plates were stored at −20 °C. For bioassay testing, daughter plates were withdrawn from −20 °C storage, thawed to ambient temperature, and centrifuged for 1 min at 100 × g, and plate seals were removed before 38 μL of serum-free media (SFM) was transferred into wells using a Matrix pipettor (ThermoFisher, Waltham, MA), to generate an intermediate stock concentration of validation compounds ranging from 0.977 to 500 μM (5.0% DMSO). Diluted compounds were mixed by repeated aspiration and dispensation using a 384-well P30 dispensing head on the Janus MDT platform and then, 5 μL of diluted compounds was transferred to assay plate wells to provide a final concentration range from 0.0977 to 50 μM (0.5% DMSO).
(§2) The AR-TIF2 PPIB HCS assay was performed in U-2 OS osteosarcoma cells as described previously. Briefly, U-2 OS cells were coinfected with recombinant adenovirus biosensor expression constructs and seeded at 2500 cells per well in 384-well collagen-coated microplates (Greiner BioOne #781956) and plates were incubated overnight at 37°C in 5% CO2 and 95% humidity. […] After the appropriate time, assay plates were fixed by transfer of 50 μL of pre-warmed (37°C) 7.4% formaldehyde and 2 μg/mL Hoechst 33342 in PBS and incubation at room temperature for 30 min. Liquid was aspirated, plates were washed twice with 85 μL PBS, leaving the final wash in the plate. Plates were sealed with adhesive aluminum plate seals, and fluorescent images of three fields of view were acquired in the DAPI (Hoechst stained nuclei), FITC (TIF2-GFP) and Texas Red (AR-RFP) channels on an ImageXpress Micro (IXM) automated HCS platform (Molecular Devices LLC, Sunnyvale, CA) using a 10X Plan Fluor 0.3 NA objective. Images were analyzed using the Translocation Enhanced (TE) image analysis module of the MetaXpress software as described previously.
(§3) In 384-well assays, DMSO minimum (n = 32) and maximum (n = 32) plate control wells were utilized to calculate signal-to-background ratios (S:B) and Z’-factor coefficient assay performance quality control statistics, and to normalize the signals of compound treated wells and to represent 0% and 100% respectively. For the 96-well AR-LBD H^3-DHT radioligand binding assay, eight minimum and maximum plate control wells were utilized to normalize the data. For the PC cell line growth inhibition assays we used the DMSO control data from the T0 and T72 assay plates to assess the dynamic range of the T0 to T72 cell growth, and to calculate S:B ratios and Z’-factor coefficient statistics for the assay signal window (T0 to T72). To normalize the 72 h compound exposure PC growth inhibition data, the signals from the compound treated wells were processed and expressed as% of the T72 DMSO plate controls. IC50 and GI50 values for each of the bioassays were calculated using Graph-Pad Prism 9 software to plot and fit data to curves using the Sigmoidal dose response variable slope equation Y = Bottom + [Top-Bottom]/ [1 + 10^^(LogEC50-X)*HillSlope].

For data set [2], the target named is T1, AR-TIF2 PPI. The data set is described as follows: AR-TIF2 PPI biosensor (PPIB) HCS assay, disruption of pre-formed AR-TIF2 PPI complexes. Conditions: U-2 OS cells, 25 nM DHT 90 min prior to compounds for 3 h. As for the experimental part: as §1, §2, §3
The test system of data set [3] is DU-145 cells. The data set is described as follows: Prostate cancer cell line growth inhibition assay, DU-145. Conditions: read-out: DU145 GI50 (AR−). Here is the method: (§4) The PC-3, DU-145, LNCaP, C4–2, and 22Rv1 PC cell line growth inhibition assays have been described previously. On day 1, each PC cell line was harvested, counted, and seeded into two 384-well assay plates, a time zero (T0) and a time 72 h (T72) plate. PC cell lines were all seeded at 1000 cells per well in 45 μL of tissue culture media in uncoated white clear bottom 384-well assay plates (VWR, # 82050–076) using a Matrix electronic multichannel pipette (Thermo Fisher Scientific, Waltham, MA) and cultured overnight at 37 °C, 5% CO2, and 95% humidity. On day 2, 25 μL of the Cell Titer Glo (CTG) (Promega Corporation, Madison, WI) detection reagent was dispensed into the wells of the T0 assay plate using a Matrix electronic multichannel pipette, and the RLUs were captured on the SpectraMax M5e (Molecular Devices LLC, Sunnyvale, CA) microtiter plate reader. Also on day 2, 5 μL of compounds were transferred into the test wells of the T72 384-well assay plates which were returned to the incubator for 72 h. Control wells received DMSO alone. On day 5, 25 μL of the CTG detection reagent was dispensed into the wells of the T72 assay plate using a Matrix electronic multichannel pipette, and the RLU’s were captured on the SpectraMax M5e microtiter plate reader platform.
as §3

Data set [4] has as its system PC-3 cells. As to the kind of experiment: Prostate cancer cell line growth inhibition assay, PC-3. The conditions noted are these: read-out: PC3 GI50 (AR−). Here is the method:
as §4, §3

Data set [5] concerns PC cell lines positive (LNCaP, C4–2, & 22Rv1 cells) or negative (PC-3 & DU-145) for AR. As to the kind of experiment: Prostate cancer cell line growth inhibition assays, panel statements. The conditions noted are these: 72 h. As for the experimental part:
as §4, §3

The mark [6] stands for this setting: LNCaP, C4–2, 22Rv1, read-out: GI50s in AR positive PC cell lines.

`Cc1ccccc1-c1cc(O)c2c(c1)CN(c1nc(C(N)=O)cs1)CCO2` [S1–1]: the figures for the IC50 in data set [1] and in data set [2] were 5.64 µM and 26.6 µM, respectively. Besides, the GI50 in data set [3] (Homo sapiens, DU-145, 72 h) is more than 100 µM; in data set [4] (72 h), 70.3 µM; in data set [4] (Homo sapiens, PC-3, 72 h), 70 µM; in data set [5] (setting [6]), 29 to 56 µM.
For the molecule `Cc1ccccc1-c1cc(O)c2c(c1)CN(c1nccs1)CCO2` [S1–3], the IC50 in data set [1] is 30.5 µM; in data set [2] it was 63.1 µM; in data set [2] (listed as S1-3) it was 63 µM. Also, the GI50 in data set [3] (72 h) and in data set [4] (72 h) was more than 100 µM throughout. Moreover, the “Cytotoxicity in AR positive relative to AR negative PC cell lines” value in data set [5] is reported as “exhibited differential cytotoxicity in AR positive PC cell lines”.
On to `Cc1nsc(NC(=O)N2CCC(Sc3ccccc3C)CC2)n1` [S2–6], for which the results for the IC50 in data set [1] and in data set [2] were 1.06 µM and 5.8 µM, respectively. Also, the GI50 is more than 100 µM in data set [3] (Homo sapiens, DU-145, 72 h); more than 100 µM in data set [4] (Homo sapiens, PC-3, 72 h); more than 100 µM in data set [5] (Homo sapiens, PC-3, DU-145, read-out: GI50s in AR negative PC cell lines); 14 to 19 µM in data set [5] (setting [6]). Besides, in data set [5], the “Cytotoxicity in AR positive relative to AR negative PC cell lines” value is on record as “exhibited differential cytotoxicity in AR positive PC cell lines”.
On to `Cc1c(-c2ccccc2F)[nH]c2ccc(CNC(=O)CCc3cn[nH]c3)cc12` [S3–11], for which the IC50 in data set [1] is 3.25 µM and 3.2 µM; in data set [2], 29.1 µM. Further, the GI50 was 18 µM in data set [3] (Homo sapiens, DU-145, 72 h) and 32.6 µM in data set [4] (Homo sapiens, PC-3, 72 h). Further, the “Cytotoxicity in AR positive relative to AR negative PC cell lines” value in data set [5] was “exhibited differential cytotoxicity in AR positive PC cell lines relative to AR negative cell lines”.
With `Cc1c(-c2ccccc2F)[nH]c2ccc(CNC(=O)CCc3cnccn3)cc12` [S3–12], the IC50 in data set [1] turned out to be 4.24 µM; in data set [2], 26.7 µM. Also, the GI50 amounted to 6.82 µM in data set [3] (Homo sapiens, DU-145, 72 h) and 18.4 µM in data set [4] (Homo sapiens, PC-3, 72 h). Moreover, in data set [5], the “Cytotoxicity in AR positive relative to AR negative PC cell lines” value is recorded as “roughly equipotent against all 5 PC cell lines”.
The matching figures for `CC(=O)NCCC(=O)NCc1ccc2[nH]c(-c3ccccc3F)c(C)c2c1` [S3–13]: 7.16 µM, 41.3 µM, more than 100 µM, more than 100 µM and “roughly equipotent against all 5 PC cell lines”.
As to `Cc1c(-c2ccccc2F)[nH]c2ccc(CNC(=O)c3ccc(CO)o3)cc12` [S3–14], the IC50 in data set [1] amounted to 2.13 µM; in data set [2] it was 18 µM. Besides, the GI50 in data set [3] (Homo sapiens, DU-145, 72 h) was more than 100 µM; in data set [4] (Homo sapiens, PC-3, 72 h), more than 100 µM. Besides, the “Cytotoxicity in AR positive relative to AR negative PC cell lines” value in data set [5] is listed as “exhibited differential cytotoxicity in AR positive PC cell lines relative to AR negative cell lines”.
Regarding `Cc1c(-c2ccc(F)cc2)[nH]c2ccc(CNC(=O)c3ccc(CO)o3)cc12` [S3–15], in data set [1] (S1 analogs vs S1–1, S3–15 vs S3–14), the “Reduction in relative potency versus parent hit in AR-TIF2 PPIB assay formats” value is recorded as ~ 2 fold. The IC50 in data set [1] was found to be 5.11 µM; in data set [2] it was 26.2 µM. Further, the GI50 in data set [3] (Homo sapiens, DU-145, 72 h) was 24.3 µM; in data set [4] (Homo sapiens, PC-3, 72 h), 23.7 µM. For the same molecule, the “Cytotoxicity in AR positive relative to AR negative PC cell lines” value in data set [5] is recorded as “roughly equipotent against all 5 PC cell lines”.
